{"source": "patent US20120009183A1", "about": "“METHOD FOR TREATMENT OF PANCREATITIS” (Ore Pharmaceuticals Inc., priority 2007, published 2012)", "key": {"[1]": {"system": "activator protein-1 (AP-1)", "assay": "Basal in vivo reporter luciferase expression in AP-1::Luc mice", "conditions": "data not shown"}, "[2]": {"system": "NF-κB dependent transcription", "assay": "LPS-induced NF-κB dependent transcription in extracted organs of NF-κB::Luc mice (luciferase assay)", "format": "in vivo", "conditions": "30 mg/kg GL1001 + 0.5 mg/kg LPS vs LPS alone; stomach", "source_text": "For luciferase assays, organs were extracted and snap frozen in liquid nitrogen. All tissue samples were placed in lysis buffer with inhibitors (Passive Lysis Buffer (Promega) and Complete Mini Protease Inhibitor Cocktail (Roche, Indianapolis, Ind.)), and were homogenized using a tissue homogenizer (Handishear, Hand-held homogenizer, VirTis, Gardiner, N.Y.). Tissue homogenates were centrifuged and clarified lysates were used for luminometer assays and western blots. For the luminometer assays, Luciferase Assay Substrate (Luciferase Assay System, Promega) was prepared as indicated by the manufacturer and placed in disposable cuvettes. […] Background luminescence readings were obtained and the background readings were subtracted from the luminescent data. Protein concentrations were determined using the BCA Protein Assay Kit (Pierce, Rockford, Ill.) following the manufacturer's protocols and analyzed using a VERSAmax tuneable microplate reader and associated Softmax Pro version 3.1.2 software (Molecular Devices, Sunnyvale Calif.). The luminescence for each of the protein lysates was calculated as arbitrary units of light per microgram of protein. […]\nGL1001 was further tested for in vivo anti-inflammatory activity by examining its effects on bacterial LPS induced NF-κB dependent transcription, in NF-κB::Luc mice. […] Luciferase signal was quantitated from several regions of interest. […]"}, "[3]": {"system": "NF-κB dependent transcription", "assay": "In vivo basal NF-κB dependent transcription in NF-κB::Luc reporter mice, abdominal imaging", "conditions": "300 mg/kg s.c., 4 hours post administration; p<0.01", "source_text": "GL1001 was further tested for in vivo anti-inflammatory activity by examining its effects on basal levels of NF-κB dependent transcription in mice engineered in the germline with a construct containing an NF-κB enhancer linked to a luciferase gene (i.e., NF-κB::Luc mice), such that this NF-κB reporter construct is present in all cells of the mice.\nMore particularly, transgenic NF-κB::Luc mice were generated using three NF-κB response elements from the Igκ light chain promoter fused to a firefly luciferase gene as described by Carlsen et al. (2002) J. Immunol. 168:1441-1446. Pronuclear microinjection of purified construct DNA was used to generate transgenic founders in the C57BL/6 XCBA/J background. Founders were subsequently back crossed to the C57BL/6 albino background. […] Signal data were also quantitated and archived using the Living Image® software. Photons of light were quantitated using an oval region of interest (ROI) of varying sizes depending on the procedure, as described further below.\nTo test for in vivo effects of GL1001 on basal levels of NF-κB dependent transcription, male NF-κB::Luc mice were subjected to quantitative in vivo imaging of the abdominal area (using a fixed ROI of 2.76×3.7 cm) as described above, immediately before, and at 2, […]"}, "[4]": {"system": "NF-κB dependent transcription", "assay": "TNFα-induced activation of NF-κB in recombinant HeLa reporter cells (luciferase)", "format": "cell-based", "conditions": "TNFα 20 ng/ml, 6 hours, HeLa NF-κB-luc", "source_text": "To test the ACE2 inhibitor GL1001 for anti-inflammatory activity relevant to gastrointestinal inflammatory disease, more particularly pancreatitis, effects of the compound on activation of NF-κB dependent transcription by TNFα were examined in recombinant reporter cells containing a construct with a luciferase reporter gene under control of NF-κB dependent regulatory sequences, thereby allowing detection of NF-κB dependent transcription by measuring reporter enzyme using a conventional luciferase activity assay based on detection of generated light.\nIn particular, HeLa cells (American Type Culture Collection) were grown in Dulbecco's modified Eagles medium (DMEM) supplemented with 10% fetal calf serum and transiently transfected with an NF-κB-luc construct (Stratagene, Inc.), as follows (with all incubation steps at 37 C unless otherwise indicated). Cells were seeded and grown to about 70% confluency in a 10 cm cell culture dish. Plasmid DNA (10 μg) was added to 1 ml serum free DMEM media in a tube. Fugene 6 transfection reagent (30 μl) (Roche) was then pipetted slowly into the tube and the contents were gently mixed by inversion. The mixture was incubated at room temperature for 15 minutes and then added dropwise to cells in one 10 cm dish. […] Bioluminescence was then measured using a Veritas luminometer (Turner BioSystems). […]"}, "[5]": {"system": "spontaneous CP in male WBN/Kob rats", "conditions": "Kuno et al. (2003); cited from earlier work"}, "[6]": {"system": "acute pancreatitis induced by cerulein", "conditions": "Tsang et al. (2004); cited from earlier work"}}}
{"smiles": "CC(C)C[C@H](N[C@@H](Cc1cncn1Cc1cc(Cl)cc(Cl)c1)C(=O)O)C(=O)O", "note": "[GL1001, (S,S)-2-[1-carboxy-2-[3-(3,5-dichlorobenzyl)-3H-imidazol-4-yl]-ethylamino]-4-methylpentanoic acid]", "values": [{"measurement": "effect on basal in vivo reporter luciferase expression", "setting": "[1]", "result": "no significant effect"}, {"measurement": "reduction of LPS induced NF-κB-dependent transcription in stomachs", "setting": "[2]", "result": "about 37 fold"}, {"measurement": "inhibition of basal in vivo NF-κB dependent transcription in abdominal ROI", "setting": "[3]", "result": "over 40%"}, {"measurement": "inhibition of TNFα induced activation of NF-κB dependent transcription", "setting": "[4]; at 8 nM", "result": "over 80%"}, {"measurement": "maximal inhibition of TNFα induced activation of NF-κB dependent transcription", "setting": "[4]; at 0.2 μM", "result": "over 95%"}]}
{"smiles": "NCCCC[C@H](N[C@@H](CCc1ccccc1)C(=O)O)C(=O)N1CCC[C@H]1C(=O)O", "note": "[lisinopril]", "values": [{"measurement": "pancreatic fibrosis in animal model of CP", "setting": "[5]", "result": "attenuated"}]}
{"smiles": "CCCCc1nc(Cl)c(CO)n1Cc1ccc(-c2ccccc2-c2nn[nH]n2)cc1", "note": "[losartan]", "values": [{"measurement": "severity of acute pancreatitis induced by cerulein", "setting": "[6]", "result": "markedly reduced"}]}
